Assay results from ChEMBL document CHEMBL1201862, “PubChem BioAssay data set” (2004).
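All cell lines were grown in 96-well plates and treated with compound for 48 hours. GI50 = concentration required for 50% inhibition of growth.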 Calls of active or inactive are those of the source. Cut-off read from the data, not from the text of the source: active = GI50 up to about 1.1 µM and inactive = higher.

How the values were obtained:
Experiment in all cases: NCI anticancer screen, dose series, 48 h
MDA-MB-435 = tested on: MDA-MB-435
UACC-257 = tested on: UACC-257
SF-295 = tested on: SF-295
SN12C = tested on: SN12C
OVCAR-5 = tested on: OVCAR-5
EKVX = tested on: EKVX
HCT-116 = tested on: HCT-116
SW-620 = tested on: SW-620
OVCAR-8 = tested on: OVCAR-8
OVCAR-3 = tested on: OVCAR-3
BT-549 = tested on: BT-549
RPMI-8226 = tested on: RPMI-8226
U-251 = tested on: U-251
IGROV-1 = tested on: IGROV-1
TK-10 = tested on: TK-10
MDA-N = tested on: MDA-N
OVCAR-4 = tested on: OVCAR-4
SR = tested on: SR
HT-29 = tested on: HT-29
CCRF-CEM = tested on: CCRF-CEM

Row | Compound | GI50 (MDA-MB-435) | GI50 (UACC-257) | GI50 (SF-295) | GI50 (SN12C) | GI50 (OVCAR-5) | GI50 (EKVX) | GI50 (HCT-116) | GI50 (SW-620) | GI50 (OVCAR-8) | GI50 (OVCAR-3) | GI50 (BT-549) | GI50 (RPMI-8226) | GI50 (U-251) | GI50 (IGROV-1) | GI50 (TK-10) | GI50 (MDA-N) | GI50 (OVCAR-4) | GI50 (SR) | GI50 (HT-29) | GI50 (CCRF-CEM)
1 | N[C@H]1CCN(c2c(F)cc3c(=O)c(C(=O)O)cn4c3c2Oc2cc3c(ccc5ccccc53)cc2-4)C1 | 3.88 µM (inactive) | 4.9 µM (inactive) | 2.98 µM (inactive) | 3.23 µM (inactive) | 11 µM (inactive) | 3.65 µM (inactive) | 2.87 µM (inactive) | 3.27 µM (inactive) | 2.96 µM (inactive) | 4.48 µM (inactive) | 6.46 µM (inactive) | 1.58 µM (inactive) | 1.39 µM (inactive) | 2.59 µM (inactive) | 4.44 µM (inactive) | 3.03 µM (inactive) | 5.25 µM (inactive) | 2.52 µM (inactive) | 3.08 µM (inactive) | 
2 | CCOC(=O)c1nc2ccccc2nc1Oc1ccc(C(=O)OC)cc1 | > 100 µM (inactive) | > 100 µM (inactive) | > 100 µM (inactive) | > 100 µM (inactive) | > 100 µM (inactive) | > 100 µM (inactive) | > 100 µM (inactive) | > 100 µM (inactive) | > 100 µM (inactive) | > 100 µM (inactive) | > 100 µM (inactive) | > 100 µM (inactive) | > 100 µM (inactive) | > 100 µM (inactive) | > 100 µM (inactive) | > 100 µM (inactive) | > 100 µM (inactive) |  | > 100 µM (inactive) | 41.8 µM (inactive)
3 | COc1cc(/C=C2\N=C(c3ccccc3)N(c3nc4ccc(Sc5ccccc5)cc4[nH]3)C2=O)ccc1O | 3.56 µM (inactive) | 18 µM (inactive) | 27.9 µM (inactive) | 26.9 µM (inactive) | 26.1 µM (inactive) | 31.5 µM (inactive) | 21.1 µM (inactive) | 21.7 µM (inactive) | 27.6 µM (inactive) | 30.5 µM (inactive) | 20 µM (inactive) | 16.7 µM (inactive) | 19.4 µM (inactive) | 37.8 µM (inactive) | 20.7 µM (inactive) | 5.13 µM (inactive) | 30.1 µM (inactive) |  | 18.4 µM (inactive) | 6.14 µM (inactive)
4 | CN1CC[C@]23c4c5ccc(O)c4O[C@H]2C(O)CC[C@@]3(O)[C@H]1C5 (some centres not stated) | > 100 µM (inactive) | > 100 µM (inactive) | > 100 µM (inactive) | > 100 µM (inactive) | > 100 µM (inactive) | > 100 µM (inactive) | > 100 µM (inactive) | > 100 µM (inactive) | > 100 µM (inactive) | > 100 µM (inactive) | > 100 µM (inactive) | > 100 µM (inactive) | > 100 µM (inactive) | > 100 µM (inactive) | > 100 µM (inactive) | > 100 µM (inactive) | > 100 µM (inactive) | > 100 µM (inactive) | > 100 µM (inactive) | 
5 | Cc1ccc(S(=O)(=O)NC(=O)NC(C(=O)O)C(C)C)cc1 (configuration not stated) |  | > 100 µM (inactive) | > 100 µM (inactive) | > 100 µM (inactive) | > 100 µM (inactive) |  | > 100 µM (inactive) | > 100 µM (inactive) | > 100 µM (inactive) |  | > 100 µM (inactive) | > 100 µM (inactive) | > 100 µM (inactive) | > 100 µM (inactive) | > 100 µM (inactive) | > 100 µM (inactive) | > 100 µM (inactive) | > 100 µM (inactive) | > 100 µM (inactive) | > 100 µM (inactive)
6 | NC1=NN(c2ccccc2)C2(c3ccncc3C(=O)O)C1C(N)=NN2c1ccccc1 (configuration not stated) | > 100 µM (inactive) | > 100 µM (inactive) | > 100 µM (inactive) | > 100 µM (inactive) | > 100 µM (inactive) | > 100 µM (inactive) | > 100 µM (inactive) | > 100 µM (inactive) | > 100 µM (inactive) | > 100 µM (inactive) | > 100 µM (inactive) | > 100 µM (inactive) | > 100 µM (inactive) | > 100 µM (inactive) |  | > 100 µM (inactive) | > 100 µM (inactive) |  | > 100 µM (inactive) | > 100 µM (inactive)
7 | C[N+]12C=CC=C1C(N1CCCC1)c1scc(-c3ccc(F)cc3)c12 (configuration not stated) | 30.6 µM (inactive) |  | 58.7 µM (inactive) | 11.1 µM (inactive) | 32.4 µM (inactive) | 92.3 µM (inactive) | 46.2 µM (inactive) | 68.2 µM (inactive) | 40.4 µM (inactive) | 14.6 µM (inactive) | 4.89 µM (inactive) | 10.4 µM (inactive) | 6.71 µM (inactive) | 13.1 µM (inactive) |  | 17.1 µM (inactive) |  | 11 µM (inactive) | 18.3 µM (inactive) | 1.89 µM (inactive)
8 | Cc1cnc(Cl)nc1C(C#N)c1nc2ccccc2n1C (configuration not stated) | > 100 µM (inactive) | > 100 µM (inactive) | > 100 µM (inactive) | > 100 µM (inactive) | 64.3 µM (inactive) | 6.31 µM (inactive) | 23.2 µM (inactive) | > 100 µM (inactive) | 38.6 µM (inactive) | > 100 µM (inactive) | > 100 µM (inactive) | 85.9 µM (inactive) | 19.5 µM (inactive) | 33.4 µM (inactive) | 36 µM (inactive) | > 100 µM (inactive) | 49.1 µM (inactive) |  | 35.9 µM (inactive) | 
9 | O=C(Oc1c(Cl)cc(C2(c3cc(Cl)c(OC(=O)c4ccccc4)c(Cl)c3)CCCCC2)cc1Cl)c1ccccc1 | 10.1 µM (inactive) | 12.7 µM (inactive) | 13.4 µM (inactive) | 13.2 µM (inactive) | 14 µM (inactive) | 11.1 µM (inactive) | 13.2 µM (inactive) | 16.2 µM (inactive) | 15.9 µM (inactive) | 10.9 µM (inactive) | 14.7 µM (inactive) | 11.9 µM (inactive) | 13.8 µM (inactive) | 10.6 µM (inactive) | 16.7 µM (inactive) | 12.7 µM (inactive) | 10.9 µM (inactive) |  | 14.6 µM (inactive) | 8 µM (inactive)
10 | COC1/C=C\C=C(/C)C(=O)Nc2cc3nc4ccc(Br)cc4oc-3c(c2=O)CC(C)CC(OC)C(O)C(C)/C=C(\C)C1OC(N)=O (configuration not stated) | 0.00389 µM (active) | 0.0556 µM (active) | 12.6 µM (inactive) | 0.0481 µM (active) | 1.64 µM (inactive) | 3.17 µM (inactive) | 0.0276 µM (active) | 0.01 µM (active) | 0.09 µM (active) | 0.082 µM (active) | 0.00429 µM (active) | 0.119 µM (active) | 4.46 µM (inactive) | 0.436 µM (active) | 0.0424 µM (active) | 0.00451 µM (active) | 0.469 µM (active) | 0.0116 µM (active) | < 0.0396 µM (active) | 
11 | O=C(Nc1ncc([N+](=O)[O-])s1)c1ccccc1O [TIZOXANIDE] | 22.6 µM (inactive) | 20.7 µM (inactive) | 7.89 µM (inactive) | 17.5 µM (inactive) | 32.9 µM (inactive) | 16.5 µM (inactive) | 11.1 µM (inactive) | 34.1 µM (inactive) | 17.9 µM (inactive) | 6.84 µM (inactive) | 19.1 µM (inactive) | 7 µM (inactive) | 14.9 µM (inactive) | 23.6 µM (inactive) | 21.4 µM (inactive) | 27 µM (inactive) | 38.3 µM (inactive) |  | 14.5 µM (inactive) | 
